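Here, GI50 denotes the concentration required for 50% inhibition of growth. At the TGI there is no net growth.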
Assays:
Test in all cases: NCI anticancer screen, dose series, 384-well format
A498 renal = system: A498 renal
COLO 205 colon = system: COLO 205 colon
HCT-116 colon = system: HCT-116 colon
HCT-15 colon = system: HCT-15 colon
HL-60(TB) leukemia = system: HL-60(TB) leukemia
KM12 colon = system: KM12 colon
MALME-3M melanoma = system: MALME-3M melanoma
OVCAR-4 ovarian = system: OVCAR-4 ovarian
SF-539 CNS = system: SF-539 CNS
SN12C renal = system: SN12C renal
TK-10 renal = system: TK-10 renal
UACC-257 melanoma = system: UACC-257 melanoma
UACC-62 melanoma = system: UACC-62 melanoma

Work on `C[C@H](NC(=O)c1c(C(F)F)nn(C)c1Oc1cccc(C(F)(F)F)c1)c1ccc(C(=O)O)cc1` yielded a GI50 (A498 renal) of over 100 µM, a TGI (A498 renal) of over 100 µM and a GI50 (COLO 205 colon) of over 100 µM. It also gave a TGI (COLO 205 colon) of over 100 µM, a GI50 (HCT-116 colon) of over 100 µM and a TGI (HCT-116 colon) of over 100 µM. The GI50 (HCT-15 colon) was over 100 µM, the TGI (HCT-15 colon) was over 100 µM and the GI50 (HL-60(TB) leukemia) was over 100 µM. The TGI (HL-60(TB) leukemia) was over 100 µM, the GI50 (KM12 colon) was over 100 µM and the TGI (KM12 colon) was over 100 µM. For the same compound, the GI50 (MALME-3M melanoma) was over 100 µM, the TGI (MALME-3M melanoma) was over 100 µM and the GI50 (OVCAR-4 ovarian) was over 100 µM. For the same compound, the TGI (OVCAR-4 ovarian) was over 100 µM, the GI50 (SF-539 CNS) was over 100 µM and the TGI (SF-539 CNS) was over 100 µM. It also gave a GI50 (SN12C renal) of over 100 µM, a TGI (SN12C renal) of over 100 µM and a GI50 (TK-10 renal) of over 100 µM. For the same compound, the TGI (TK-10 renal) was over 100 µM, the GI50 (UACC-257 melanoma) was over 100 µM and the TGI (UACC-257 melanoma) was over 100 µM. The GI50 (UACC-62 melanoma) was over 100 µM and the TGI (UACC-62 melanoma) was over 100 µM.

— PubChem BioAssay (NCI)
